Measured values as given in patent publication US12616713B2, “Methods for enhancing vascular density” (priority 2016, dated 2026).

Experiments:
HAECs = test: Spheroid sprouting assay, HAECs; assay type: cell-based, human; settings: VEGF 50 ng/mL
Experimental: ECs spheroids were generated as described previously (Korff and Augustin, 1998, J Cell Biol 143, 1341-1352). ECs (1000 cells per spheroid) were suspended in EGM-2 medium containing 20% methocel (viscosity: 4000 cps, Sigma) and seeded in non-adherent round-bottom 96-well plates (Sigma). Under these conditions all suspended cells contributed to the formation of a single spheroid. The spheroids were harvested after 24 h embedded into collagen gels. Sprouting was initiated by adding C2C12 CM or EBM-2 medium containing VEGF (50 ng/mL). NMN (0.5 mM), NaHS (0.1 mM), DAPT (20 μM, Cayman Chemical) or SU5416 (10 μM, Sigma) were added to the media wherever mentioned. Angiogenic activity was quantified by measuring the sprout length that had grown out of each spheroid analyzing 8-10 spheroids per group.

CD38 = target: T1, CD38 (Homo sapiens, UniProt P28907); settings: in vitro (Esande et al. 2013); cited from earlier work
T1 sequence (P28907 1-300): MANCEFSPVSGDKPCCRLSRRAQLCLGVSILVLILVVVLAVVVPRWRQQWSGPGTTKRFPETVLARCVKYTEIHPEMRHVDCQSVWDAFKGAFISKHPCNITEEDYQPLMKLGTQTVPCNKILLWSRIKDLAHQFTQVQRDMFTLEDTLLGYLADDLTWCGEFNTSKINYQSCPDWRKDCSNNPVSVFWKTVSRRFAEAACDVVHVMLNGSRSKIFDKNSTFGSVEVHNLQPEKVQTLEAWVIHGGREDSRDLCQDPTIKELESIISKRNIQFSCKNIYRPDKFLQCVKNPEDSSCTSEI

NAMPT = NAMPT (Homo sapiens, UniProt P43490); settings: in vitro (Wang et al. 2014); cited from earlier work
HUVECs [1] = test: Seahorse analysis of oxygen consumption rate; assay type: cell-based, human; settings: NaHS 100 μM, NMN 500 μM
Experimental: Oxygen consumption rates were measured in accordance with manufacturer instructions using Seahorse XF96 analyzer (Seahorse Bioscience). Briefly, 40,000 HUVECs were plated onto XF96 plates and incubated overnight at 37° C./5% CO2. Next day, the media was replaced with XF assay media (DMEM), supplemented with glucose (1 g/L), glutamate (2 mM) and pyruvate (1 mM) and the pH was adjusted to 7.4. NaHS (100 μM) and/or NMN (500 μM) were added at the start of the experiment. Oxygen consumption measurements were made approximately every 8 minutes under basal conditions, and after the addition of oligomycin (1 μM). Experiments were replicated in six wells and averaged for each experimental condition.

HUVECs [2] = test: Wound scratch assay, HUVECs; assay type: cell-based, human; settings: 6 h
Experimental: ECs were cultured until forming a confluent monolayer and a scratch was made using a 200 μL pipette tip. Then the cells were allowed to migrate+/−NaHS (0.1 mM) and +/−NMN (0.5 mM) in EGM-2 medium for 6 hrs. Images were taken at the same location using a brightfield inverted microscope (Olympus 2467) every 2 h. The area of gap closure was calculated using ImageJ software. In some experiments, HUVECs were transduced with Scr or SIRT1 siRNA and cultured until forming a confluent monolayer. The cells were exposed to H2O2 (150 μM) for 1 h and a scratch was made using a 200 μL pipette tip. Then the cells were allowed to migrate with PBS (vehicle), NaHS (100 μM) and/or NMN (500 μM) in EGM-2 medium for 6 h. Images were taken at the same location using a brightfield inverted microscope (Olympus 2467) every 2 h. The area of gap closure was calculated using ImageJ software.

SIRT1 = SIRT1 protein levels in HUVECs (Western blot); assay type: cell-based, human; settings: NaHS 0.1 mM and/or NMN 0.5 mM
Experimental: SDS-PAGE and Western blot analysis were performed according to standard procedures and detected with the ECL detection kit (Bio-rad, Australia). For Western blot analysis antibodies directed against SIRT1 (Sigma), SIRT3 (CST), SIRT6 (SantaCruz), eNOS (Cell Signaling Technology or CST), cleaved Notch1 (CST), total OXPHOS cocktail (Abcam), PGC-1α (Millipore), VEGF (Abcam), VEGFR2 (Abcam), phospho-VEGFR2 (Millipore), Actin (Cell Signaling Technology), Tubulin (Sigma), 14-3-3 (Cell Signaling Technology), GAPDH (SantaCruz) were used. Quantification of band intensities by densitometry was carried out using ImageJ software.

NAD^+ = test: NAD+ levels in HUVECs; assay type: cell-based, human; settings: increasing doses of NaHS, 24 hrs
Experimental: Levels of NAD^+ and NADH levels were measured in EC and muscle homogenates using commercially available kit (NAD-NADH Glo, Promega) according to manufacturer's instructions. Alternatively, NAD^+ levels in muscle and liver were measured by assay in-house developed method (Uddin et al., 2016, Front Pharmacol 7, 258). In brief, liver and gastrocnemius samples were homogenized in extraction buffer (10 mM Tris-HCl, 0.5% TritonX-100, 10 mM Nicotinamide, pH7.4) and then centrifuged (12,000×g for 5 min at 4° C.), after which an aliquot of supernatant was taken for protein quantification. After phenol:chloroform:isoamylalcohol (25:24:1) and chloroform extractions the supernatant was separated in two aliquots. One was used to measure total NAD. The other aliquot was acidified with HCl, and then neutralized with NaOH on ice to quantify NAD^+. Samples were mixed in a 96-well plate samples were mixed with alcohol dehydrogenase (ADH) at room temperature. Total NADH and NAD^+ were quantified using a Bio-Rad Imark microplate reader.

NAMPT, sequence (P43490 whole entry, species assumed): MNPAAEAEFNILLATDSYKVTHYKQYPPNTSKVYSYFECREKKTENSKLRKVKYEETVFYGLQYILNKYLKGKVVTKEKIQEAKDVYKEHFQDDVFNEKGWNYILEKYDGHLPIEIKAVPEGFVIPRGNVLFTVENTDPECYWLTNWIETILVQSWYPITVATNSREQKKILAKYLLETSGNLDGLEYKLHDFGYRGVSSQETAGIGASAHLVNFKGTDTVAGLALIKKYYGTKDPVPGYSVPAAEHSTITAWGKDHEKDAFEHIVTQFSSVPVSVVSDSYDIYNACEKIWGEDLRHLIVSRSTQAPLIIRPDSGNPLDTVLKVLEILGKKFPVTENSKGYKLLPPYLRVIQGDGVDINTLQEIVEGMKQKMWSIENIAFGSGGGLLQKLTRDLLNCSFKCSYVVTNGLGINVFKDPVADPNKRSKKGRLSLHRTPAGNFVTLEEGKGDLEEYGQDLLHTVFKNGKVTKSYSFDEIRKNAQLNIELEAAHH

## Cc1cc(C)c(/C=C2\C(=O)Nc3ccccc32)[nH]1 [SU5416, reference compound]
HAECs; SU5416 10 μM
  sprouting of spheroids: completely blocked sprouting

## O=c1cc(-c2ccc(O)cc2)oc2cc(O)cc(O)c12 [apigenin, 5,7-dihydroxy-2-(4-hydroxyphenyl)-4H-1-benzopyran-4-one]
CD38
  CD38 activity: inhibitors of CD38 activity in vitro

## OC(CNc1ccccc1)Cn1c2ccc(Br)cc2c2cc(Br)ccc21 (stereo not shown) [P7C3]
NAMPT
  activity of NAMPT: enhances activity of NAMPT in vitro

## [Na+].[SH-] [NaHS, sodium hydrosulfide]
HUVECs [1]
  basal OCR: lowered the basal OCR
HUVECs [2]; NT or SIRT1 siRNA HUVECs, NaHS 0.1 mM, independent of VEGF but dependent on SIRT1
  cell migration in a scratch assay: increased cell migration
HUVECs [2]; Scr or SIRT1 siRNA HUVECs, H2O2 150 μM 1 h, NaHS 100 μM and/or NMN 500 μM
  cell migration (percentage of closed gaps): increased cell migration in a SIRT1-dependent manner
SIRT1
  SIRT1 protein levels: increased SIRT1 protein levels
NAD^+
  intracellular NAD^+ levels in ECs: raised intracellular NAD^+ levels in ECs in a dose dependent manner

## C[C@H](NC(=O)Cc1cc(F)cc(F)c1)C(=O)N[C@H](C(=O)OC(C)(C)C)c1ccccc1 [DAPT, N—[N-(3,5-Difluorophenacetyl)-L-alanyl]-S-phenylglycine t-butyl ester, reference compound]
HAECs; DAPT 20 μM, NT or SIRT1 siRNA
  sprout length of spheroids: increased sprout length irrespective of SIRT1 levels

## O=c1c(O)c(-c2ccc(O)c(O)c2)oc2cc(O)cc(O)c12 [quercetin, 2-(3,4-dihydroxyphenyl)-3,5,7-trihydroxy-4H-chromen-4-one]
CD38
  CD38 activity: inhibitors of CD38 activity in vitro
